Experimental data as given in PubChem BioAssay (NCI).
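GI50 marks 50% less growth. TGI: total growth inhibition.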

Legend:
Assay in all cases: NCI anticancer screen, dose series, 384-well format
HCT-116 colon = system: HCT-116 colon
HCT-15 colon = system: HCT-15 colon
TK-10 renal = system: TK-10 renal
HOP-92 NSCLC = system: HOP-92 NSCLC
DU-145 prostate = system: DU-145 prostate
U251 glioblastoma = system: U251 glioblastoma
SR leukemia = system: SR leukemia
SK-MEL-28 melanoma = system: SK-MEL-28 melanoma
HOP-62 NSCLC = system: HOP-62 NSCLC
UACC-62 melanoma = system: UACC-62 melanoma
ACHN renal = system: ACHN renal
PC-3 prostate = system: PC-3 prostate
IGROV1 ovarian = system: IGROV1 ovarian
NCI/ADR-RES ovarian = system: NCI/ADR-RES ovarian
CAKI-1 renal = system: CAKI-1 renal
K-562 leukemia = system: K-562 leukemia
NCI-H23 lung = system: NCI-H23 lung
A498 renal = system: A498 renal
SK-MEL-2 melanoma = system: SK-MEL-2 melanoma
M14 melanoma = system: M14 melanoma
MALME-3M melanoma = system: MALME-3M melanoma
T-47D breast = system: T-47D breast
MDA-MB-468 breast = system: MDA-MB-468 breast
RXF 393 renal = system: RXF 393 renal
786-0 renal = system: 786-0 renal
OVCAR-3 ovarian = system: OVCAR-3 ovarian
MDA-MB-231 breast = system: MDA-MB-231 breast
RPMI-8226 leukemia = system: RPMI-8226 leukemia
NCI-H522 lung = system: NCI-H522 lung
COLO 205 colon = system: COLO 205 colon
SNB-19 CNS = system: SNB-19 CNS
LOX IMVI melanoma = system: LOX IMVI melanoma
HT29 colon = system: HT29 colon
MCF7 breast = system: MCF7 breast
NCI-H460 NSCLC = system: NCI-H460 NSCLC
A549 NSCLC = system: A549 NSCLC
CCRF-CEM leukemia = system: CCRF-CEM leukemia
OVCAR-4 ovarian = system: OVCAR-4 ovarian
SW-620 colon = system: SW-620 colon
SK-MEL-5 melanoma = system: SK-MEL-5 melanoma
SN12C renal = system: SN12C renal
SF-295 CNS = system: SF-295 CNS
UO-31 renal = system: UO-31 renal
HL-60(TB) leukemia = system: HL-60(TB) leukemia
OVCAR-8 ovarian = system: OVCAR-8 ovarian
SK-OV-3 ovarian = system: SK-OV-3 ovarian
SF-268 CNS = system: SF-268 CNS
BT-549 breast = system: BT-549 breast
KM12 colon = system: KM12 colon
SF-539 CNS = system: SF-539 CNS
NCI-H226 lung = system: NCI-H226 lung
NCI-H322M lung = system: NCI-H322M lung
HCC-2998 colon = system: HCC-2998 colon
MDA-MB-435 melanoma = system: MDA-MB-435 melanoma
MOLT-4 leukemia = system: MOLT-4 leukemia
OVCAR-5 ovarian = system: OVCAR-5 ovarian
UACC-257 melanoma = system: UACC-257 melanoma

## Cc1c(C)n(CCCN2CCN(C)CC2)c2ccc(Oc3cccc(C(=O)N4CCN(CCc5ccc(F)cc5)CC4)c3)cc12
HCT-116 colon
  GI50: 1470 nM
  TGI: 2800 nM
HCT-15 colon
  GI50: 1430 nM
  TGI: 2750 nM
TK-10 renal
  GI50: 1590 nM
  TGI: 2940 nM
HOP-92 NSCLC
  GI50: 1430 nM
  TGI: 2740 nM
DU-145 prostate
  GI50: 1730 nM
  TGI: 3130 nM
U251 glioblastoma
  GI50: 1700 nM
  TGI: 3100 nM
SR leukemia
  GI50: 1460 nM
  TGI: 2790 nM
SK-MEL-28 melanoma
  GI50: 1680 nM
  TGI: 3060 nM
HOP-62 NSCLC
  GI50: 1630 nM
  TGI: 3000 nM
UACC-62 melanoma
  GI50: 1780 nM
  TGI: 3170 nM
ACHN renal
  GI50: 1610 nM
  TGI: 2980 nM
PC-3 prostate
  GI50: 1650 nM
  TGI: 3020 nM
IGROV1 ovarian
  GI50: 1580 nM
  TGI: 2940 nM
NCI/ADR-RES ovarian
  GI50: 1570 nM
  TGI: 2920 nM
CAKI-1 renal
  GI50: 1510 nM
  TGI: 2850 nM
K-562 leukemia
  GI50: 1430 nM
  TGI: 2760 nM
NCI-H23 lung
  GI50: 1500 nM
  TGI: 2830 nM
A498 renal
  GI50: 1520 nM
  TGI: 2860 nM
SK-MEL-2 melanoma
  GI50: 1760 nM
  TGI: 3140 nM
M14 melanoma
  GI50: 1600 nM
  TGI: 2960 nM
MALME-3M melanoma
  GI50: 1410 nM
  TGI: 2710 nM
T-47D breast
  GI50: 1490 nM
  TGI: 2820 nM
MDA-MB-468 breast
  GI50: 1390 nM
  TGI: 2690 nM
RXF 393 renal
  GI50: 1420 nM
  TGI: 2730 nM
786-0 renal
  GI50: 1520 nM
  TGI: 2870 nM
OVCAR-3 ovarian
  GI50: 1610 nM
  TGI: 2970 nM
MDA-MB-231 breast
  GI50: 1910 nM
  TGI: 3320 nM
RPMI-8226 leukemia
  GI50: 1300 nM
  TGI: 2560 nM
NCI-H522 lung
  GI50: 1680 nM
  TGI: 3050 nM
COLO 205 colon
  GI50: 1680 nM
  TGI: 3070 nM
SNB-19 CNS
  GI50: 1710 nM
  TGI: 3100 nM
LOX IMVI melanoma
  GI50: 2090 nM
  TGI: 3540 nM
HT29 colon
  GI50: 1450 nM
  TGI: 2800 nM
MCF7 breast
  GI50: 1720 nM
  TGI: 3110 nM
NCI-H460 NSCLC
  GI50: 1850 nM
  TGI: 3320 nM
A549 NSCLC
  GI50: 1600 nM
  TGI: 2980 nM
CCRF-CEM leukemia
  GI50: 1630 nM
  TGI: 2990 nM
OVCAR-4 ovarian
  GI50: 1750 nM
  TGI: 3130 nM
SW-620 colon
  GI50: 1770 nM
  TGI: 3190 nM
SK-MEL-5 melanoma
  GI50: 1280 nM
  TGI: 2550 nM
SN12C renal
  GI50: 1630 nM
  TGI: 2990 nM
SF-295 CNS
  GI50: 1800 nM
  TGI: 3200 nM
UO-31 renal
  GI50: 1610 nM
  TGI: 2970 nM
HL-60(TB) leukemia
  GI50: 2030 nM
  TGI: 3460 nM
OVCAR-8 ovarian
  GI50: 1620 nM
  TGI: 3000 nM
SK-OV-3 ovarian
  GI50: 1520 nM
  TGI: 2860 nM
SF-268 CNS
  GI50: 1780 nM
  TGI: 3180 nM
BT-549 breast
  GI50: 1320 nM
  TGI: 2600 nM
KM12 colon
  GI50: 1720 nM
  TGI: 3120 nM
SF-539 CNS
  GI50: 1610 nM
  TGI: 2980 nM
NCI-H226 lung
  GI50: 1590 nM
  TGI: 2940 nM
NCI-H322M lung
  GI50: 1640 nM
  TGI: 3010 nM
HCC-2998 colon
  GI50: 1430 nM
  TGI: 2740 nM
MDA-MB-435 melanoma
  GI50: 1720 nM
  TGI: 3110 nM
MOLT-4 leukemia
  GI50: 1810 nM
  TGI: 3200 nM
OVCAR-5 ovarian
  GI50: 1660 nM
  TGI: 3030 nM
UACC-257 melanoma
  GI50: 889 nM
  TGI: 2100 nM
